Experiments:
Assay type in all cases: in vivo
[1] = tested on: field corn (Zea mays L., var. Dekalb 535, CORN); test: Post-emerge test, crop safety; conditions: post-emerge, crop damage rating 0-100 at 14 days after application
Method in brief: (§1)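 Each test used a mechanized track sprayer delivering 187 l/ha of acetone solution at 15–1000 g ai/ha. Post-emerge foliage at 2–3 leaves was treated with added 0.25% v/v non-ionic surfactant and bottom-watered only. Injury was assessed on day 14, where 100 means total kill.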

[2] = tested on: upland rice (Oryza sp., var. Tebonnet, RICE); test: Post-emerge test, crop safety; conditions: post-emerge, crop damage rating 0-100 at 14 days after application
Method in brief: as §1

[3] = tested on: johnsongrass (Sorghum halepense, SORHA); test: Pre-emerge test, greenhouse herbicide activity screening; conditions: pre-emerge, phytotoxicity rating 0-100 at 14 days after application
Method in brief: (§2)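 Plants grown in 10 cm pots of sandy loam mix received acetone-dissolved compounds through a moving flat-fan nozzle. Doses ranged from 15 to 1000 g ai/ha. Pre-emerge pots were seeded one day earlier, post-emerge pots 8–21 days earlier. Fourteen days on, each pot was graded 0–100 for damage.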

[4] = tested on: large crabgrass (Digitaria sanguinalis, DIGSA); test: as above; conditions: pre-emerge, phytotoxicity rating 0-100 at 14 days after application
Method in brief: as §2

[5] = tested on: sicklepod (Cassia obtusifolia, CASOB); test: as above; conditions: pre-emerge, phytotoxicity rating 0-100 at 14 days after application
Method in brief: as §2

[6] = tested on: velvetleaf (Abutilon theophrasti, ABUTH); test: as above; conditions: pre-emerge, phytotoxicity rating 0-100 at 14 days after application
Method in brief: as §2

[7] = tested on: ivyleaf morningglory (Ipomoea hederacea, IPOHE); test: as above; conditions: pre-emerge, phytotoxicity rating 0-100 at 14 days after application
Method in brief: as §2

[8] = tested on: green foxtail (Setaria viridis, SETVI); test: as above; conditions: pre-emerge, phytotoxicity rating 0-100 at 14 days after application
Method in brief: as §2

[9] = tested on: lambsquarters (Chenopodium album, CHEAL); test: as above; conditions: pre-emerge, phytotoxicity rating 0-100 at 14 days after application
Method in brief: as §2

[10] = tested on: barnyardgrass (Echinochloa crus-galli, ECHCG); test: as above; conditions: pre-emerge, phytotoxicity rating 0-100 at 14 days after application
Method in brief: as §2

[11] = tested on: redroot pigweed (Amaranthus retroflexus, AMARE); test: as above; conditions: pre-emerge, phytotoxicity rating 0-100 at 14 days after application
Method in brief: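 Sandy loam pots; pre-emerge: sown 1 d pre-spray, surface-watered after, then bottom-watered. Post-emerge: sown 8–21 d before, 2–3 leaf stage, + 0.25% v/v NIS, bottom-watered. Acetone, 187 l/ha track spray, 15–1000 g ai/ha. 0–100 injury score, day 14.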

[12] = tested on: redroot pigweed (Amaranthus retroflexus, AMARE); test: Post-emerge test, greenhouse herbicide activity screening; conditions: post-emerge, phytotoxicity rating 0-100 at 14 days after application
Method in brief: as §2

[13] = tested on: large crabgrass (Digitaria sanguinalis, DIGSA); test: as above; conditions: post-emerge, phytotoxicity rating 0-100 at 14 days after application
Method in brief: as §2

[14] = tested on: sicklepod (Cassia obtusifolia, CASOB); test: as above; conditions: post-emerge, phytotoxicity rating 0-100 at 14 days after application
Method in brief: as §2

[15] = tested on: velvetleaf (Abutilon theophrasti, ABUTH); test: as above; conditions: post-emerge, phytotoxicity rating 0-100 at 14 days after application
Method in brief: as §2

[16] = tested on: ivyleaf morningglory (Ipomoea hederacea, IPOHE); test: as above; conditions: post-emerge, phytotoxicity rating 0-100 at 14 days after application
Method in brief: as §2

[17] = tested on: green foxtail (Setaria viridis, SETVI); test: as above; conditions: post-emerge, phytotoxicity rating 0-100 at 14 days after application
Method in brief: as §2

[18] = tested on: lambsquarters (Chenopodium album, CHEAL); test: as above; conditions: post-emerge, phytotoxicity rating 0-100 at 14 days after application
Method in brief: as §2

[19] = tested on: barnyardgrass (Echinochloa crus-galli, ECHCG); test: as above; conditions: post-emerge, phytotoxicity rating 0-100 at 14 days after application
Method in brief: as §2

[20] = tested on: field corn (Zea mays L., var. Dekalb 535, CORN); test: Pre-emerge test, crop safety; conditions: crop damage, pre-emerge, phytotoxicity rating 0-100 at 14 days after application
Method in brief: (§3)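 Compounds in acetone were track-sprayed at 187 l/ha, 15–1000 g ai/ha, onto sandy loam pots. Pre-emerge seeds were sown one day before spraying, with surface watering afterwards. Post-emerge plants were at the 2–3 leaf stage and sprayed with 0.25% v/v non-ionic surfactant. Injury was rated 0–100 at 14 days.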

[21] = tested on: upland rice (Oryza sp., var. Tebonnet, RICE); test: Pre-emerge test, crop safety; conditions: crop damage, pre-emerge, phytotoxicity rating 0-100 at 14 days after application
Method in brief: as §3

COc1c(Cl)cc(F)c(-n2nnn(CCCF)c2=O)c1NC(=O)c1ccc2ccccc2c1 [Compound 5-26]
Post-emerge Herbicidal Activity CORN ([1]; 63 g ai/ha): 10
Post-emerge Herbicidal Activity CORN ([1]; 250 g ai/ha): 5
Post-emerge Herbicidal Activity RICE ([2]; 63 g ai/ha): 50
Post-emerge Herbicidal Activity RICE ([2]; 250 g ai/ha): 60
Pre-emerge Herbicidal Activity SORHA ([3]; rate 63 g ai/ha): 0
Pre-emerge Herbicidal Activity SORHA ([3]; rate 250 g ai/ha): 30
Pre-emerge Herbicidal Activity DIGSA ([4]; rate 63 g ai/ha): 30
Pre-emerge Herbicidal Activity DIGSA ([4]; rate 250 g ai/ha): 80
Pre-emerge Herbicidal Activity CASOB ([5]; rate 63 g ai/ha): 10
Pre-emerge Herbicidal Activity CASOB ([5]; rate 250 g ai/ha): 80
Pre-emerge Herbicidal Activity ABUTH ([6]; rate 63 g ai/ha): 70
Pre-emerge Herbicidal Activity ABUTH ([6]; rate 250 g ai/ha): 100
Pre-emerge Herbicidal Activity IPOHE ([7]; rate 63 g ai/ha): 0
Pre-emerge Herbicidal Activity IPOHE ([7]; rate 250 g ai/ha): 40
Pre-emerge Herbicidal Activity SETVI ([8]; rate 63 g ai/ha): 60
Pre-emerge Herbicidal Activity SETVI ([8]; rate 250 g ai/ha): 90
Pre-emerge Herbicidal Activity CHEAL ([9]; rate 63 g ai/ha): 100
Pre-emerge Herbicidal Activity CHEAL ([9]; rate 250 g ai/ha): 100
Pre-emerge Herbicidal Activity ECHCG ([10]; rate 63 g ai/ha): 20
Pre-emerge Herbicidal Activity ECHCG ([10]; rate 250 g ai/ha): 30
Pre-emerge Herbicidal Activity AMARE ([11]; rate 63 g ai/ha): 100
Pre-emerge Herbicidal Activity AMARE ([11]; rate 250 g ai/ha): 100
Post-emerge Herbicidal Activity AMARE ([12]; 63 g ai/ha): 100
Post-emerge Herbicidal Activity AMARE ([12]; 250 g ai/ha): 90
Post-emerge Herbicidal Activity DIGSA ([13]; 63 g ai/ha): 20
Post-emerge Herbicidal Activity DIGSA ([13]; 250 g ai/ha): 30
Post-emerge Herbicidal Activity CASOB ([14]; 63 g ai/ha): 90
Post-emerge Herbicidal Activity CASOB ([14]; 250 g ai/ha): 100
Post-emerge Herbicidal Activity ABUTH ([15]; 63 g ai/ha): 100
Post-emerge Herbicidal Activity ABUTH ([15]; 250 g ai/ha): 100
Post-emerge Herbicidal Activity IPOHE ([16]; 63 g ai/ha): 90
Post-emerge Herbicidal Activity IPOHE ([16]; 250 g ai/ha): 70
Post-emerge Herbicidal Activity SETVI ([17]; 63 g ai/ha): 40
Post-emerge Herbicidal Activity SETVI ([17]; 250 g ai/ha): 70
Post-emerge Herbicidal Activity CHEAL ([18]; 63 g ai/ha): 100
Post-emerge Herbicidal Activity CHEAL ([18]; 250 g ai/ha): 100
Post-emerge Herbicidal Activity ECHCG ([19]; 63 g ai/ha): 20
Post-emerge Herbicidal Activity ECHCG ([19]; 250 g ai/ha): 60
Pre-emerge Herbicidal Activity CORN ([20]; rate 63 g ai/ha): 0
Pre-emerge Herbicidal Activity CORN ([20]; rate 250 g ai/ha): 0
Pre-emerge Herbicidal Activity RICE ([21]; rate 63 g ai/ha): 15
Pre-emerge Herbicidal Activity RICE ([21]; rate 250 g ai/ha): 40
